Assay results taken from patent US20080176810A1, “Use of 3, 4', 5-Trihydroxy-Stilbene-3-Beta-D-glucoside in Prepartion of Medicines For Treating and/or Preventing Ischemic Heart Disease” (SHENZHEN NEPTUNUS PHARMACEUTICAL CO., LTD., priority 2004, published 2008).
Values joined by “and” are separate entries in the source; they are usually repeats but may differ in a detail not shown here. Equal values may be shown once. “Also recorded” adds a separate entry of the source.

What was measured:
[1] = test system: ischemic reperfusion injury of myocardium; assay: Ischemic reperfusion injury of myocardium in rats, iv; format: in vivo, SD rats; settings: for CK / LDH: serum
Method: Administration was performed by femoral intravenous injection.
(1) Method of operation and ligation of coronary artery: Male SD rats were anesthetized with pentobarbital sodium (45 mg/kg) and immobilized on their backs for records of II lead ECG with an electrocardiograph (ECG-6851C, manufactured by Shanghai Photoelectrical Medical Electronic Apparatus Co., Ltd.). Tracheas were intubated and connected to a breathing apparatus. Thoracotomy was performed at intercostal space on left chest for cutting down fourth/fifth rib and opening cardiac pericardium to expose the heart. A 0/3 suture line was passed underneath the left branch of anterior descending coronary artery. After 10 minutes of stabilization (those with abnormal ECG after stabilization were abandoned). With two thrums passing through a small piece of fine silicone tube, a ligature was made on another small piece of fine silicone tube for ischemic ligation (those with no changes in ST segment and T-wave were excluded). After 10 minutes of ligation, drugs were injected slowly through femoral veins. 40 minutes later, the lines for ligation were cut off to reperfuse the anterior descending branch for 30 minutes.
(2) Detection of lactate dehydrogenase (LDH) and creatine kinase (CK): After completion of reperfusion, blood was sampled from abdominal aorta to determine serum activity of LDH and CK with ultraviolet spectrometry.
(3) Measurement of the area of myocardial infarction: With same thickness, 5 slices of ventricular myocardium were cut off from the part under the line of coronary ligation and in parallel to atrioventricular furrow and put into staining solution of nitroblue tetrazolium (N-BT) for 15 min of shaking dyeing. Normal myocardium would be dyed to lasureous color, while the infarct part of myocardium would not be dyed and remain pale-yellow. Under a microscopy, the infarct part was separated and weighed, and the percentage (%) of the weight of infarct part to the weight of total myocardium was adopted as the index for area of myocardial infarction.
(4) Data and statistic treatment: Data in all groups were presented with x±s and analysis of variance was adopted to check their significance.

platelet aggregation = settings: 6~100 μmol/L TSG; cited from earlier work
vascular smooth muscle = settings: 0.02 mM~2 mM; cited from earlier work
[2] = Pharmacokinetics of single-dose iv in Beagle dogs; settings: for maximum plasma drug concentration: dogs;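 on all read-outs here: plasma levels in healthy adult Beagle dogs, five per dose group, after slow forelimb iv injection over 5 min, parameters from non-compartmental statistical moment analysis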
Method: Pharmacokinetical studies were carried out in three groups at the doses of 10 mg/Kg, 20 mg/Kg and 30 mg/Kg. Five healthy adult Beagle dogs were chosen into each dose group. […] The intravenous injection was performed in one forelimb of each tested dog within 5 min in a very slow manner. Three hours after the intravenous injection, the dogs could be fed. 3 ml of venous blood was sampled in heparinized tubes from another forelimb of each tested dog before and 0, 5, 10, 20, 40, 60, 90, 120, 180, 240, 300, 360 and 480 min after administration. Blood samples were centrifuged to obtain 1 ml of plasma.
Non compartmental modeling method (statistical moment) was applied in the data analysis. Estimating formula of corresponding parameters is as follows:
AUC0˜τ=Σ(Ci+Ci−1)×(ti−ti−1)/2
AUC0˜∞=Σ(Ci+Ci−1)×(ti−ti−1)/2+Cn/λ
AUMC0˜∞=Σ(Citi+Ci−1ti−1)×(ti−ti−1)/2+Cn(1/λ^2+tn/λ)
Where, in the formula, λ indicates the number of terminal eliminating rate of the concentration-time curve. tn and Cn represent the latest time of blood-sampling and plasma drug concentration, respectively. Pharmacokinetical parameters such as tmax and Cmax take the corresponding measuring value of plasma samples.
These pharmacokinetic parameters are obtained with non compartmental modeling method.

[3] = Beagle dogs, single dose iv, 10 mg/Kg, non compartmental
[4] = Beagle dogs, single dose iv, 20 mg/Kg, non compartmental
[5] = Beagle dogs, single dose iv, 30 mg/Kg, non compartmental

3,4′,5-trihydroxy-stilbene-3-β-D-glucoside [TSG]
Infarct area percentage ([1]; high dose 30.0 mg/kg iv): 23.71 ± 3.66 % | CK ([1]; high dose 30.0 mg/kg iv): 559.4 ± 72.9 IU/L | LDH ([1]; high dose 30.0 mg/kg iv): 744.0 ± 149.2 IU/L | Infarct area percentage ([1]; low dose 7.5 mg/kg iv): 27.57 ± 5.33 % | CK ([1]; low dose 7.5 mg/kg iv): 710.7 ± 106.8 IU/L | LDH ([1]; low dose 7.5 mg/kg iv): 857.7 ± 124.0 IU/L | Infarct area percentage ([1]; middle dose 15.0 mg/kg iv): 24.80 ± 3.32 % | CK ([1]; middle dose 15.0 mg/kg iv): 630.6 ± 108.6 IU/L | LDH ([1]; middle dose 15.0 mg/kg iv): 809.4 ± 128.4 IU/L | platelet aggregation and production of thromboxane B2 induced by arachidonic acid, adenosine diphosphate and adrenalin (platelet aggregation): inhibited | intracellular calcium concentration in vascular smooth muscle (vascular smooth muscle): increase intracellular calcium concentration in vascular smooth muscle remarkably | AUC0~∞ ([2]; 10 mg/kg iv): 315.42 ± 60.82 µg·min/mL and 315 µg·min/mL | terminal elimination half life (t1/2) ([2]; 10 mg/kg iv): 2.7978 ± 2.8483 h and 2.8 h | AUC0~∞ ([2]; 20 mg/kg iv): 745.75 ± 175.84 µg·min/mL and 745 µg·min/mL | terminal elimination half life (t1/2) ([2]; 20 mg/kg iv): 2.5175 ± 0.9553 h and 2.53 h | AUC0~∞ ([2]; 30 mg/kg iv): 1552.71 ± 227.28 µg·min/mL and 1552 µg·min/mL | terminal elimination half life (t1/2) ([2]; 30 mg/kg iv): 6.2182 ± 6.2163 h and 6.22 h | maximum plasma drug concentration ([2]; 30 mg/kg iv): 100 µg/mL | maximum plasma drug concentration ([2]; 30 mg/kg iv, listed as 3,4′,5-trihydroxy-stilbene-3-β-D-glucoside): about 100 μg/ml; also recorded: approximately 0.25 mM | AUC0~480 [2, 3]: 283.05 ± 49.85 µg·min/mL | AUC0~∞ [2, 3]: 315.42 ± 60.82 µg·min/mL | CI [2, 3]: 0.03 ± 0.01 L/min | MRT [2, 3]: 2.3343 ± 2.0812 h | Vss [2, 3]: 4.21 ± 3.06 L | t1/2 [2, 3]: 2.7978 ± 2.8483 h | AUC0~480 [2, 4]: 718.32 ± 179.10 µg·min/mL | AUC0~∞ [2, 4]: 745.75 ± 175.84 µg·min/mL | CI [2, 4]: 0.03 ± 0.01 L/min | MRT [2, 4]: 1.301 ± 0.204 h | Vss [2, 4]: 2.24 ± 0.78 L | t1/2 [2, 4]: 2.5175 ± 0.9553 h | AUC0~480 [2, 5]: 1432.17 ± 349.97 µg·min/mL | AUC0~∞ [2, 5]: 1552.71 ± 227.28 µg·min/mL | CI [2, 5]: 0.02 ± 0.00 L/min | MRT [2, 5]: 3.068 ± 4.0013 h | Vss [2, 5]: 4.25 ± 6.35 L | t1/2 [2, 5]: 6.2182 ± 6.2163 h
